In patent US10034922B2, “Peptide having angiogenesis inhibitory activity and composition containing same” (GemVax & KAEL Co., Ltd., priority 2013, dated 2018):

How the values were obtained:
HSP70 = HSP70 protein level by immunoblotting, serum-free media, 2 h treatment; type: cell-based, human; details: MCF7 cells, PEP1 20 μM, 17-AAG 1 μM, KNK437 1 μM
Procedure: (§1) Jurkat and MCF7 cells ([…]) were seeded and incubated for 12 hours. After treating the starvation for 2 hours by adding the OPTI-MEM media, same as the shown figure, the cells were treated by the PEP1 at the different concentrations, by the scrambled peptides, […] (1 μM) or KNK437 (1 μM). After the 2-hour incubation, the cells were collected and lysated by using cell lysis buffer (Thermo Scientific, IL, USA). By using Bradford Protein Assay (Bio-Rad, USA), the protein concentration was quantified, and the samples were treated by SDS-PAGE and immunoblotting with α-HSP70 (sc-32239 and sc-66048, Santa Cruz, Calif., USA), α-HSP90 (ab1429, abcam, USA), α-GRP78 (sc-13968), α-HIF-1a (sc-10790) or α-GAPDH (sc-25778) antibodies. The immune reactive band was visualized by the intensive chemiluminescence kit (iNtRoN Biotechnology, INC, Korea), and analyzed by ImageQuant™ LAS-4000 (GE Healthcare Life Science, NJ, US).

HSP90 = HSP90 protein level by immunoblotting, serum-free media, 2 h treatment; type: cell-based, human; details: 17-AAG 1 μM, KNK437 1 μM
Procedure: as §1

Row | Compound | amount of HSP70, comparison with HSP inhibitors (HSP70) | amount of HSP90, comparison with HSP inhibitors (HSP90; Jurkat cells, PEP1 5 μM) | amount of HSP90, comparison with HSP inhibitors (HSP90; MCF7 cells, PEP1 20 μM)
1 | O=CN1CC/C(=C\c2ccc3c(c2)OCO3)C1=O [KNK437] | decrease | decreased | decrease
2 | C=CCNC1=C2C[C@@H](C)C[C@H](OC)[C@H](O)[C@@H](C)/C=C(\C)[C@H](OC(N)=O)[C@@H](OC)/C=C\C=C(/C)C(=O)NC(=CC1=O)C2=O [17-AAG] | very little effect | decreased | very little effect
